Data from patent US20210205312A1, “TREATMENT OF MEMBRANOUS NEPHROPATHY, IGG4-RELATED DISEASE, AND ANTIPHOSPHOLIPID SYNDROME USING BTK INHIBITOR 2-[(3R)-3-[4-AMINO-3-(2-FLUORO-4-PHENOXY-PHENYL)PYRAZOLO[3,4-d]PYRIMIDIN-1-YL]PIPERIDINE-1-CARBONYL]-4-METHYL-4-[4-(OXETAN-3-YL)PIPERAZIN-1-YL]PENT-2-ENENITRILE” (Principia Biopharma Inc., priority 2020, published 2021).
Where two headings read alike, the source gives them in different places.

Experiments:
[1] = test system: CD20+ B-cells in human whole blood; experiment: B-cell activation: anti-IgM-induced CD69 expression on CD20+ B-cells in human whole blood (flow cytometry); type: cell-based; details: read-out: IC50 for inhibition of CD69 B-cell expression
Method: Compound (I) can inhibit B-cell activation, BCR dependent B-cell proliferation, and de novo antibody production. To determine the functional activity of Compound (I), the ability of the compound to inhibit B-cell activation as assessed by anti-IgM-induced CD69 expression in CD20+ B-cells in human whole blood was determined (FIG. 7). […]. As an additional measure of the effects of Compound (I) on B-cell function, the ability of Compound (I) to inhibit B-cell receptor (BCR)-induced human B-cell proliferation was determined. […]. A randomized multicenter trial comparing low-dose prednisolone versus observation for prevention of recurrences in adult immune thrombocytopenia. Clin Appl Thromb Hemost 24: 867-873.).

ADCC = experiment: Antibody-dependent cell-mediated cytotoxicity (ADCC) in combination with anti-CD20 antibodies; type: cell-based
[2] = test system: enriched B-cells from healthy volunteers; experiment: Inhibition of B-cell antibody production (IgG and IgM AlphaLISA); details: for IC50: Homo sapiens, B-cell, 168 h
Method: B-cells were enriched from leukocyte concentrate of TrimaAccel® LRS chamber recovered after a plateletpheresis procedure from healthy volunteers (Stanford Blood Center, Palo Alto, Calif.) using the Straight from LRSC CD19 Microbead Kit (Miltenyi Biotech). […] IC50 was calculated in GraphPad Prism with non-linear regression using “log (inhibitor) vs. response—Variable slope (four parameters)” analysis with no constraints.

[3] = test system: anti-GBM glomerulonephritis; experiment: Mouse anti-GBM glomerulonephritis model; type: in vivo
Method: The mouse anti-GBM glomerulonephritis model involves antibody mediated autoimmunity, and the model is histologically and mechanistically similar to glomerulonephritis in humans. The model also includes kidney deposition of immune complexes (IC), targeting glomerular basement membrane. The efficacy of Compound (I) (also referred to as PRN1008) relative to the corticosteroid dexamethasone (Dex) was tested in a mouse anti-GBM glomerulonephritis model according to the design shown in FIG. 1. Briefly, to induce glomerulonephritis, mice were pre-sensitized with sheep IgG/FCA (Study Day −5). Five days later (Study Day 0), the mice received anti-GBM sheep IgG. Treatment with vehicle, Compound (I), or Dex with various dosage regimes (Compound (I): 10 mg/kg, 20 mg/kg, or 40 mg/kg QD or 20 mg/kg BID; Dex: 1 mg/kg QD; Vehicle: QD or BID) began at Study Day −1, one day prior to injection with anti-GBM sheep IgG. Treatment continued until Study Day 10, for […] treatment in total. Urine protein analysis was conducted on Study Days −6, −4, −1, 1, 3, 6, 8, and 10. Following Study Day 10, mice serum BUN levels were analyzed as a measure of kidney function, and kidney histology was performed.

[4] = 10, 20 or 40 mg/kg QD or 20 mg/kg BID, Study Day -1 to 10

With `CC(C)(C=C(C#N)C(=O)N1CCC[C@@H](n2nc(-c3ccc(Oc4ccccc4)cc3F)c3c(N)ncnc32)C1)N1CCN(C2COC2)CC1` [Compound (I), 2-[(3R)-3-[4-amino-3-(2-fluoro-4-phenoxy-phenyl)pyrazolo[3,4-d]pyrimidin-1-yl]piperidine-1-carbonyl]-4-methyl-4-[4-(oxetan-3-yl)piperazin-1-yl]pent-2-enenitrile] the IC50 [1] was 126 ± 32 nM, the “effect on ADCC” value (ADCC) was “did not block” and the “T-dependent and T-independent antibody production (IgG and IgM)” value ([2]; CpG, TNP-LPS or anti-CD40+IL-21 stimulation, 7 days) was “inhibited”. It also gave an IC50 ([2]; read-out: IgG antibody production IC50, CpG (TLR-9 agonist) stimulation, T-independent, 7 days) of 50 ± 90 nM, an IC50 ([2]; read-out: IgG antibody production IC50, TNP-LPS stimulation, T-independent, 7 days) of 300 ± 600 nM and an IC50 ([2]; read-out: IgG antibody production IC50, anti-CD40 + IL-21 stimulation (T-cell dependent), 7 days) of 20 ± 20 nM. For the same compound, the IC50 ([2]; read-out: IgM antibody production IC50, CpG (TLR-9 agonist) stimulation, T-independent, 7 days) was 1 ± 1 nM, the IC50 ([2]; read-out: IgM antibody production IC50, TNP-LPS stimulation, T-independent, 7 days) was 200 ± 600 nM and the IC50 ([2]; read-out: IgM antibody production IC50, anti-CD40 + IL-21 stimulation (T-cell dependent), 7 days) was 800 ± 1000 nM. For the same compound, the “inhibition of kidney weight gain (surrogate for kidney inflammation)” value [3, 4] was “dose dependent inhibition”, the “inhibition of severe proteinuria” value [3, 4] was “dose dependent inhibition” and the “inhibition of serum blood urea nitrogen (BUN) levels” value ([3]; 10, 20 or 40 mg/kg QD or 20 mg/kg BID, Study Day -1 to 10, BUN after Day 10) was “dose dependent inhibition”. The “kidney pathology (histology)” value ([3]; compared with Dex 1 mg/kg QD) was “significantly reduced kidney pathology, superior to a steroid comparator (Dex)” and the “proteinuria during the study” value ([3]; urine protein analysis up to Study Day 10) was “reduced proteinuria”.
